“Also recorded” adds a separate entry of the source.
Assays:
[1] = test system: HER2; test: Induction of HER2 degradation in MCF-7 cells (immunoblotting); format: cell-based, human; conditions: for IC50: 24-hr treatment, amount of drug needed to degrade 50% of the protein vs control, average of three experiments, read-out: IC50 (HER-2); for specificity/selectivity for HER-2 over Raf-1: compared to GM
Procedure: (§1) After exposure, cells were washed twice with ice-cold phosphate-buffered saline (PBS), collected by scraping and transferred into microcentrifuge tubes. For immunoblotting (HER2, Raf-1, ER), cells were lysed with SDS lysis buffer (50 mM Tris-HCl, pH 7.5, 2% SDS, 10% glycerol, and 1 mM DTT), boiled for 10 min, and sonicated briefly; for immanoprecipitation (IGF-IR), cells were lysed with NP40 lysis buffer (50 mM Tris-HCl, pH 7.5, 1% Nonidet P-40, 150 mM NaCl, 1 mM Na3VO4, 40 mM NaF, 1 mM phenylmethylsulfonyl fluoride (PMSF) and 10 μg/ml each of aprotinin, leupeptin and soybean trypsin inhibitor) for 20 min at 4° C. Cell lysates were cleared by centrifuging at 14,000×g for 15 min at 4° C. in a microcentrifuge; the supernatants were collected as the experimental samples. Protein concentration in each sample was determined using the BCA kit (Pierce) according to the manufacture's instructions. For detecting IGF-IR, samples were immunoprecipitated with anti-IGF-IR antibody. Immunocomplexes were collected on protein A-Sepharose beads (Pharmacia), washed three tires with the lysis buffer. Samples were subjected to SDS-PAGE, electrotransferred to nitrocellulose membranes, detected using the ECL kit (Amersham) according to the manufacturer's protocol, and quantitated using the Gel Doc 1000 (Bio-Rad).
(§2) Numerical results for IC50 for HER-2, Raf-1 and cell growth are summarized in Table 1, with each number representing the average of three different experiments.

[2] = test system: HER2; test: Immunofluorescence of HER2 in MCF-7 cells; format: cell-based, human; conditions: vs DMSO control
Procedure: (§3) MCF-7 cells were grown and treated on fibronectin-coated coverslips placed in multiwell plates. Cells were fixed for 20 min at −20° C. in 100% methanol, rehydrated in PBS for 10 min at room temperature and blocked for 30 min at 37° C. in a blocking solution consisting of 2% bovine serum albumin (BSA), 10% normal goat serum and 0.05% Tween-20 in PBS. HER2 and Raf-1 were immunodetected with antibodies from Santa Cruz (SC284 and SC133, respectively); IGF-IR, an antibody from Calbiochem Oncogene Science (Abl). Slides were incubated with a […] of the primary antibody in blocking buffer for 1 hr at room temperature, followed by an incubation with Alexa 546-coupled goat anti-rabbit lgG secondary antibody (A-11010, Molecular Probes) at a […] in blocking buffer, or fluoresceine isothiocyanate-coupled goat anti-mouse IgG (F276, Molecular Probes) at a […]. […] DNA was stained with bisbenzimide, which was included in the secondary antibody solution (3 μg/ml final concentration. Coverslips were mounted on glass slides using Vectashield (Vector), to prevent quenching of fluorescence. Immunofluorescence was detected with a Zeiss epifluorescence microscope, at 40× and 100×, using appropriate filters for detection of rhodamine and bisbenzimide, and via confocal microscopy.

[3] = test system: SKBR3; test: SKBR3 breast cancer cell sensitivity; format: cell-based, human; conditions: SKBR3, HER2 highly overexpressed
Procedure: (§4) The human breast cancer cell lines MCF-7 and SKBR-3 were obtained from ATCC (Rockville, Md.), and maintained in DME/F12 (1:1) supplemented with 10% heat-inactivated fetal bovine serum (Gemini Bioproducts), 2 mM glutamine, and 50 units/ml each of penicillin and streptomycin, in a humidified 5% CO2/air atmosphere at 37° C.

[4] = test system: HER-2 and Raf-1; test: Varying concentration and treatment pattern, HER-2 and Raf-1 levels (Example 3); format: cell-based
[5] = test system: IGF-I receptor; test: IGF-I receptor level in MCF-7 cells (immunoprecipitation/immunoblotting time course); format: cell-based, human; conditions: 1 μM, 3 to 24 hours
Procedure: as §1, with “For immunoblotting (HER2, Raf-1, ER), cells were lysed with SDS lysis buffer (50 mM Tris-HCl, pH 7.5, 2% SDS, 10% glycerol, and 1 mM DTT), boiled for 10 min, and sonicated briefly; for immanoprecipitation (IGF-IR), cells were lysed with NP40 lysis buffer (50 mM Tris-HCl, pH 7.5, 1% Nonidet P-40, 150 mM NaCl, 1 mM Na3VO4, 40 mM NaF, 1 mM phenylmethylsulfonyl fluoride (PMSF) and 10 μg/ml each of aprotinin, leupeptin and soybean trypsin inhibitor) for 20 min at 4° C.” left out

[6] = test system: MCF-7 cells; test: MCF-7 cell growth inhibition (cell counting); format: cell-based; conditions: Homo sapiens, MCF7, 96 h; MCF-7 cells treated for four days; 50% growth inhibition vs vehicle; average of three experiments; read-out: IC50 (growth inh.)
Procedure: as §4
For cell growth experiments, cells were plated in 6-well tissue-culture plates (Corning) at 20,000 cells/well. Two days after plating, cells were treated with different concentrations of drugs or the vehicle DMSO (0.1%). MCF-7 cells were treated for four days; medium with the appropriate drug or vehicle was changed every 2 days; cells were trypsinized, collected and counted on a Coulter counter; IC50 for cell growth is designated as the amount of each drug needed to inhibit MCF-7 growth by 50% compared to the control vehicle.

[7] = test system: 32D cells; test: 32D cell growth (HER-kinase negative cells, daily cell counts); format: cell-based, murine; conditions: 32D cells lacking HER-kinases; various concentrations, counted daily for three days
Procedure: Murine hematopoietic cell line 32D, which lacks HER-kinases, was kindly provided by Dr Yosef Yarden (The Weizmann Institute of Science, Israel), and maintained in RPMI-1640 supplemented with 10% heat-inactivated FBS, 2 nm interleukin 3 (R&D systems), 2 mM glutamine, and 50 units/ml each of penicillin and streptomycin.

[8] = test system: IGF-IR; test: Immunofluorescence of IGF-IR in MCF-7 cells; format: cell-based, human; conditions: vs DMSO control
Procedure: as §3

[9] = test system: Raf-1; test: Induction of Raf-1 degradation in MCF-7 cells (immunoblotting); format: cell-based, human; conditions: for IC50: 24-hr treatment, amount of drug needed to degrade 50% of the protein vs control, average of three experiments
Procedure: as §1, §2

[10] = test system: estrogen receptor; test: Estrogen receptor level in MCF-7 cells (immunoblotting time course); format: cell-based, human; conditions: 1 μM, 3 to 24 hours
[11] = test system: Raf-1; test: Immunofluorescence of Raf-1 in MCF-7 cells; format: cell-based, human; conditions: vs DMSO control
Procedure: as §3

| Structure (SMILES) | IC50 [1] | specificity/selectivity for HER-2 over Raf-1 [1] | IC50 [6] | IC50 [9] | activity against HER2 (in words) [1] | activity against Raf-1 (in words) [9] | other results |
| --- | --- | --- | --- | --- | --- | --- | --- |
| COC1C=CC=C(C)C(=O)NC2=CC(=O)C(NCCCCNC3=C4CC(C)CC(OC)C(O)C(C)C=C(C)C(OC(N)=O)C(OC)C=CC=C(C)C(=O)NC(=CC3=O)C4=O)=C(CC(C)CC(OC)C(O)C(C)C=C(C)C1OC(N)=O)C2=O (stereo not drawn) [GMD-4c] | 60 nM | greatest selectivity of the compounds tested | 100 nM | 3200 nM | – | – | HER2 / HER-kinase expression over time ([1]; 1 μM, 3 to 24 hours, Western blot and immunohistochemical analysis): reduces HER2 expression with the same kinetics; anti-HER2 staining (immunofluorescence) [2]: significant reduction in fluorescence levels; sensitivity of SKBR3 cells [3]: very sensitive; amount of HER-2 and Raf-1 as a function of the treatment pattern ([4]; 0.25, 0.5 and 1 μM, single or repeated treatments at 0, 3, 6, 12 hours): No significant differences; selectivity on repeated addition ([4]; high concentrations added four times in twelve hours): retained selectivity; IGF-I receptor expression over time [5]: does not affect; effect on growth of 32D cells [7]: does not appreciably affect its growth; also recorded: much less so; anti-IGF-IR staining (immunofluorescence) [8]: only observed for the anti-HER2 antibodies; Raf-1 expression over time ([9]; 1 μM, 3 to 24 hours): does not affect; Estrogen receptor levels over time [10]: declined transiently but returned to baseline by 24 hours; anti-Raf-1 staining (immunofluorescence) [11]: only observed for the anti-HER2 antibodies |
| COC1C=CC=C(C)C(=O)NC2=CC(=O)C(NCCCCN)=C(CC(C)CC(OC)C(O)C(C)C=C(C)C1OC(N)=O)C2=O (stereo not drawn) [ButylaminoGM] | 55 nM | not selective | – | – | modestly weaker than GM | modestly weaker than GM | – |
| CC(C)C(C)C [GMD-aa] | > 5000 nM | – | > 2000 nM | > 5000 nM | inactive | inactive | – |
| COC1C=CC=C(C)C(=O)NC2=CC(=O)C(NCCCCCCCCCCCCNC3=C4CC(C)CC(OC)C(O)C(C)C=C(C)C(OC(N)=O)C(OC)C=CC=C(C)C(=O)NC(=CC3=O)C4=O)=C(CC(C)CC(OC)C(O)C(C)C=C(C)C1OC(N)=O)C2=O (stereo not drawn) [twelve carbon-linked compound] | 750 nM | – | 700 nM | 3500 nM | – | – | – |
| COC1C=CC=C(C)C(=O)NC2=CC(=O)C(NCCCCCCCCCNC3=C4CC(C)CC(OC)C(O)C(C)C=C(C)C(OC(N)=O)C(OC)C=CC=C(C)C(=O)NC(=CC3=O)C4=O)=C(CC(C)CC(OC)C(O)C(C)C=C(C)C1OC(N)=O)C2=O (stereo not drawn) | 500 nM | – | 700 nM | 3800 nM | – | – | – |
| COC1C=CC=C(C)C(=O)NC2=CC(=O)C(NCCCCCCCNC3=C4CC(C)CC(OC)C(O)C(C)C=C(C)C(OC(N)=O)C(OC)C=CC=C(C)C(=O)NC(=CC3=O)C4=O)=C(CC(C)CC(OC)C(O)C(C)C=C(C)C1OC(N)=O)C2=O (stereo not drawn) [GMD-7c] | 70 nM | – | 600 nM | 500 nM | – | – | – |

Source: US7271160B2, “Methods and compositions for degradation and/or inhibition of HER-family tyrosine kinases” (Sloan-Kettering Institute for Cancer Research, priority 1999, dated 2007)
